Bridge positions count the residues as written; N and C are the ends. Square brackets hold non-standard residues; d marks the D form. Peptide text beside a SMILES is read from it. Hyp = O=C(O)[C@@H]1C[C@@H](O)CN1
experiment: Physical stability of peptide analogues (Thioflavin T fibrillation); format: physicochemical; details: maximum ThT signal normalized between hAMY maximum and buffer background; 40° C., shaking, four days; pH 7 per table title
Experimental: General Protocols for Determination of Physical Stability of Peptide Analogues
Peptides were dissolved in buffers (50 mM sodium acetate at pH 4 or 50 mM sodium phosphate at pH 7) and incubated for one hour. The samples were then divided into two replicates of 80 μl in a black 384 well plate (μ-clear, Greiner Bio-One) and mixed with Thioflavin T (ThT) to a final concentration of 4 μM. The plate was sealed and placed in a plate reader (CLARIOstar, BMG) where the temperature was set at 40° C. during the course of the experiment. The samples were further stressed by shaking the plate at 700 rpm (linear) for five minutes before every measurement. The fluorescence was measured every 10 min for four days by exciting the ThT at 450 nm and measuring the emission at 480 nm. For each peptide, the ThT signal over time was smoothened using Local Polynomial Regression fitting (LOESS) as implemented in the statistical programming environment R. For the smoothened data, the maximum ThT signal was normalized in percent between the maximum ThT signal for hAMY and the buffer background.

SMILES | Max ThT signal (%)
CC[C@H](C)[C@H](NC(=O)[C@H](CCC(N)=O)NC(=O)[C@H](Cc1c[nH]cn1)NC(=O)[C@H](C)NC(=O)[C@H](CC(C)C)NC(=O)[C@H](CCCCN)NC(=O)[C@H](CCC(N)=O)NC(=O)[C@@H](NC(=O)[C@@H](NC(=O)[C@@H]1CSSC[C@H](NC(=O)CN)C(=O)N[C@@H](CCCNC(=N)N)C(=O)N[C@@H](Cc2ccccc2)C(=O)NCC(=O)N[C@@H]([C@@H](C)O)C(=O)N1)[C@@H](C)O)C(C)C)C(=O)N[C@@H](Cc1ccc(O)cc1)C(=O)N[C@@H](CCC(N)=O)C(=O)N[C@@H](Cc1ccccc1)C(=O)N[C@H](C(=O)N[C@@H](CC(=O)O)C(=O)N[C@@H](CCCCN)C(=O)N[C@@H](CC(=O)O)C(=O)N[C@@H](CCCCN)C(=O)N[C@@H](CC(=O)O)C(=O)N[C@@H](CC(N)=O)C(=O)N[C@H](C(=O)N[C@@H](C)C(=O)N1CCC[C@H]1C(=O)N[C@@H](CCCNC(=N)N)C(=O)N[C@@H](CO)C(=O)N[C@@H](CCCCN)C(=O)N[C@H](C(=O)N[C@@H](CO)C(=O)N1CCC[C@H]1C(=O)N[C@@H](CCC(N)=O)C(=O)NCC(=O)N[C@@H](Cc1ccc(O)cc1)C(N)=O)[C@@H](C)CC)C(C)C)[C@@H](C)O [compound 1] | 2.600
CC[C@H](C)[C@H](NC(=O)[C@H](CCC(N)=O)NC(=O)[C@H](Cc1c[nH]cn1)NC(=O)[C@H](C)NC(=O)[C@H](CC(C)C)NC(=O)[C@H](CCCNC(=N)N)NC(=O)[C@H](CCC(N)=O)NC(=O)[C@@H](NC(=O)[C@@H](NC(=O)[C@@H]1CSSC[C@H](NC(=O)[C@@H](N)CCCCN)C(=O)N[C@@H](CC(N)=O)C(=O)N[C@@H]([C@@H](C)O)C(=O)N[C@@H](C)C(=O)N[C@@H]([C@@H](C)O)C(=O)N1)[C@@H](C)O)C(C)C)C(=O)N[C@@H](Cc1ccc(O)cc1)C(=O)N[C@@H](CCC(N)=O)C(=O)N[C@@H](Cc1ccccc1)C(=O)N[C@H](C(=O)N[C@@H](CCCCN)C(=O)N[C@@H](CC(=O)O)C(=O)N[C@@H](CCCCN)C(=O)N[C@@H](CC(=O)O)C(=O)N[C@@H](CC(N)=O)C(=O)N[C@H](C(=O)N[C@@H](C)C(=O)N1CCC[C@H]1C(=O)N1CCC[C@H]1C(=O)N[C@H](C(=O)N[C@@H](CC(N)=O)C(=O)N[C@H](C(=O)NCC(=O)N[C@@H](CO)C(=O)N[C@@H](CC(N)=O)C(=O)NCC(=O)N1C[C@H](O)C[C@H]1C(N)=O)C(C)C)[C@@H](C)O)C(C)C)[C@@H](C)O [compound 29] (H-KCNTATCTVQRLAHQIYQFTKDKDNVAPPTNVGSNG[Hyp]-NH2; disulfide 2-7; N-terminus assumed) | 9.300
CC[C@H](C)[C@H](NC(=O)[C@H](CCC(N)=O)NC(=O)[C@H](Cc1c[nH]cn1)NC(=O)[C@H](C)NC(=O)[C@H](CC(C)C)NC(=O)[C@H](CCCNC(=N)N)NC(=O)[C@H](CCC(N)=O)NC(=O)[C@@H](NC(=O)[C@@H](NC(=O)[C@@H]1CSSC[C@H](NC(=O)CN)C(=O)N[C@@H](CCCNC(=N)N)C(=O)N[C@@H]([C@@H](C)O)C(=O)NCC(=O)N[C@@H]([C@@H](C)O)C(=O)N1)[C@@H](C)O)C(C)C)C(=O)N[C@@H](Cc1ccc(O)cc1)C(=O)N[C@@H](CCC(N)=O)C(=O)N[C@@H](Cc1ccccc1)C(=O)N[C@H](C(=O)N[C@@H](CC(=O)O)C(=O)N[C@@H](CCCCN)C(=O)N[C@@H](CC(=O)O)C(=O)N[C@@H](CCCCN)C(=O)N[C@@H](CC(=O)O)C(=O)N[C@@H](CC(N)=O)C(=O)N[C@H](C(=O)N[C@@H](C)C(=O)N1CCC[C@H]1C(=O)N[C@@H](CCCNC(=N)N)C(=O)N[C@@H](CO)C(=O)N[C@@H](CC(N)=O)C(=O)N[C@H](C(=O)N[C@@H](CO)C(=O)N1CCC[C@H]1C(=O)N[C@@H](CC(N)=O)C(=O)NCC(=O)N[C@@H](Cc1ccc(O)cc1)C(N)=O)C(C)C)C(C)C)[C@@H](C)O [compound 172] (H-GCRTGTCTVQRLAHQIYQFTDKDKDNVAPRSNVSPNGY-NH2; disulfide 2-7; N-terminus assumed) | 13.900

Results, then the molecule that gave them:

Max ThT signal (%) | SMILES
3.200 | CC[C@H](C)[C@H](NC(=O)[C@H](CCC(N)=O)NC(=O)[C@H](Cc1c[nH]cn1)NC(=O)[C@H](C)NC(=O)[C@H](CC(C)C)NC(=O)[C@H](CCCNC(=N)N)NC(=O)[C@H](CCC(N)=O)NC(=O)[C@@H](NC(=O)[C@@H](NC(=O)[C@@H]1CSSC[C@H](NC(=O)CN)C(=O)N[C@@H](CCCNC(=N)N)C(=O)N[C@@H](Cc2ccccc2)C(=O)NCC(=O)N[C@@H]([C@@H](C)O)C(=O)N1)[C@@H](C)O)C(C)C)C(=O)N[C@@H](Cc1ccc(O)cc1)C(=O)N[C@@H](CCC(N)=O)C(=O)N[C@@H](Cc1ccccc1)C(=O)N[C@H](C(=O)N[C@@H](CC(=O)O)C(=O)N[C@@H](CCCCN)C(=O)N[C@@H](CC(=O)O)C(=O)N[C@@H](CCCCN)C(=O)N[C@@H](CC(=O)O)C(=O)N[C@@H](CC(N)=O)C(=O)N[C@H](C(=O)N[C@@H](C)C(=O)N1CCC[C@H]1C(=O)N[C@@H](CCCNC(=N)N)C(=O)N[C@@H](CO)C(=O)N[C@@H](CCCCN)C(=O)N[C@H](C(=O)N[C@@H](CO)C(=O)N1CCC[C@H]1C(=O)N[C@@H](CC(N)=O)C(=O)NCC(=O)N1C[C@H](O)C[C@H]1C(N)=O)C(C)C)C(C)C)[C@@H](C)O [compound 175] (H-GCRFGTCTVQRLAHQIYQFTDKDKDNVAPRSKVSPNG[Hyp]-NH2; disulfide 2-7)
1.600 | CC[C@H](C)[C@H](NC(=O)[C@H](CCC(N)=O)NC(=O)[C@H](Cc1c[nH]cn1)NC(=O)[C@H](C)NC(=O)[C@H](CC(C)C)NC(=O)[C@H](CCCNC(=N)N)NC(=O)[C@H](CCC(N)=O)NC(=O)[C@@H](NC(=O)[C@@H](NC(=O)[C@@H]1CSSC[C@H](NC(=O)CN)C(=O)N[C@@H](CCCNC(=N)N)C(=O)N[C@@H]([C@@H](C)O)C(=O)NCC(=O)N[C@@H]([C@@H](C)O)C(=O)N1)[C@@H](C)O)C(C)C)C(=O)N[C@@H](Cc1ccc(O)cc1)C(=O)N[C@@H](CCC(N)=O)C(=O)N[C@@H](Cc1ccccc1)C(=O)N[C@H](C(=O)N[C@@H](CC(=O)O)C(=O)N[C@@H](CCCCN)C(=O)N[C@@H](CC(=O)O)C(=O)N[C@@H](CCCCN)C(=O)N[C@@H](CC(=O)O)C(=O)N[C@@H](CC(N)=O)C(=O)N[C@H](C(=O)N[C@@H](C)C(=O)N1CCC[C@H]1C(=O)N[C@@H](CCCNC(=N)N)C(=O)N[C@@H](CO)C(=O)N[C@@H](CCCCN)C(=O)N[C@H](C(=O)NCC(=O)N1CCC[C@H]1C(=O)N[C@@H](CCC(N)=O)C(=O)NCC(=O)N1C[C@H](O)C[C@H]1C(N)=O)C(C)C)C(C)C)[C@@H](C)O [compound 187] (H-GCRTGTCTVQRLAHQIYQFTDKDKDNVAPRSKVGPQG[Hyp]-NH2; disulfide 2-7; N-terminus assumed)
6.000 | CC[C@H](C)[C@H](NC(=O)[C@H](CCC(N)=O)NC(=O)[C@H](Cc1c[nH]cn1)NC(=O)[C@H](C)NC(=O)[C@H](CC(C)C)NC(=O)[C@H](CCCNC(=N)N)NC(=O)[C@H](CCC(N)=O)NC(=O)[C@@H](NC(=O)[C@@H](NC(=O)[C@@H]1CSSC[C@H](NC(=O)CN)C(=O)N[C@@H](CCCNC(=N)N)C(=O)N[C@@H]([C@@H](C)O)C(=O)NCC(=O)N[C@@H]([C@@H](C)O)C(=O)N1)[C@@H](C)O)C(C)C)C(=O)N[C@@H](Cc1ccc(O)cc1)C(=O)N[C@@H](CCC(N)=O)C(=O)N[C@@H](Cc1ccccc1)C(=O)N[C@H](C(=O)N[C@@H](CC(=O)O)C(=O)N[C@@H](CCCCN)C(=O)N[C@@H](CC(=O)O)C(=O)N[C@@H](CCCCN)C(=O)N[C@@H](CC(=O)O)C(=O)N[C@@H](CC(N)=O)C(=O)N[C@H](C(=O)N[C@@H](C)C(=O)N1CCC[C@H]1C(=O)N[C@@H](CCCNC(=N)N)C(=O)N[C@H](C(=O)N[C@@H](CCCCN)C(=O)N[C@H](C(=O)N[C@@H](CO)C(=O)N1CCC[C@H]1C(=O)N[C@@H](CCC(N)=O)C(=O)NCC(=O)N1C[C@H](O)C[C@H]1C(N)=O)[C@@H](C)CC)[C@@H](C)O)C(C)C)[C@@H](C)O [compound 189] (H-GCRTGTCTVQRLAHQIYQFTDKDKDNVAPRTKISPQG[Hyp]-NH2; disulfide 2-7; N-terminus assumed)
12.900 | CC[C@H](C)[C@H](NC(=O)[C@H](CCC(N)=O)NC(=O)[C@H](Cc1c[nH]cn1)NC(=O)[C@H](C)NC(=O)[C@H](CC(C)C)NC(=O)[C@H](CCCNC(=N)N)NC(=O)[C@H](CCC(N)=O)NC(=O)[C@@H](NC(=O)[C@@H](NC(=O)[C@@H]1CSSC[C@H](NC(=O)CN)C(=O)N[C@@H](CCCNC(=N)N)C(=O)N[C@@H]([C@@H](C)O)C(=O)NCC(=O)N[C@@H]([C@@H](C)O)C(=O)N1)[C@@H](C)O)C(C)C)C(=O)N[C@@H](Cc1ccc(O)cc1)C(=O)N[C@@H](CCC(N)=O)C(=O)N[C@@H](Cc1ccccc1)C(=O)N[C@H](C(=O)N[C@@H](CC(=O)O)C(=O)N[C@@H](CCCCN)C(=O)N[C@@H](CC(=O)O)C(=O)N[C@@H](CCCCN)C(=O)N[C@@H](CC(=O)O)C(=O)N[C@@H](CC(N)=O)C(=O)N[C@H](C(=O)N[C@@H](C)C(=O)N1CCC[C@H]1C(=O)N[C@@H](CCCNC(=N)N)C(=O)N[C@H](C(=O)N[C@@H](CCCCN)C(=O)N[C@H](C(=O)N[C@@H](CO)C(=O)N1CCC[C@H]1C(=O)N[C@@H](CC(N)=O)C(=O)NCC(=O)N[C@@H](Cc1ccc(O)cc1)C(N)=O)[C@@H](C)CC)[C@@H](C)O)C(C)C)[C@@H](C)O [compound 190] (H-GCRTGTCTVQRLAHQIYQFTDKDKDNVAPRTKISPNGY-NH2; disulfide 2-7)
